# Target: T1, GSPT1 (Homo sapiens, UniProt P15170)
# T1 construct: immunoblot of GSPT1 and tubulin expressed in RS4:11 cells; endogenous in cells; host or cells: RS4;11 cells
# Assay: Immunoblot of GSPT1 protein level in RS4;11 cells
# Assay type: cell-based
# Settings: 16 hours, immunoblot, read-out: concentration required to reduce GSPT1 by 50% (DC50)
# Protocol: RS4;11 cells were treated with compounds at indicated concentrations for 16 hours. […] The concentrations required to reduce GSPT1 by 50% (DC50) were below 2 nM for compound JA-189 and 10 nM JA213.
# (§1) HEL, RS4;11, MV4;11, Kasumi-1 and other cells were cultured at 37° C. with 5% CO2 in RPMI 1640 or DMEM Medium supplemented with 10% fetal bovine serum. Cells were authenticated using the short tandem repeat (STR) assays. Mycoplasma test results were negative.
# (§2) Rabbit anti-JAK1 antibody (3344S), anti-JAK2 antibody (3230S), anti-JAK3 antibody (8827S), anti-TYK2 antibody (14193S), anti-FLT3 antibody (3462S), anti-RET antibody (14556S), anti-phospho-STAT3 (Tyr705) antibody (9145S) and anti-phospho-STAT5 (Tyr694) antibody (4322S) were purchased from Cell Signaling Technology. Rabbit anti-GSPT1 antibody (ab126090) was purchased from Abcam. HRP-conjugated anti-α-tubulin antibody was produced in house. Media and other cell culture reagents were purchased from Thermo Fisher. The CellTiter-Glo Luminescent Assay kit was purchased from Promega.
# (§3) Cultured cells were washed with cold PBS once and lysed in cold RIPA buffer supplemented with protease inhibitors and phosphatase inhibitors (Beyotime Biotechnology). The solutions were then incubated at 4° C. for 30 minutes with gentle agitation to fully lyse cells. Cell lysates were centrifuged at 13,000 rpm for 10 minutes at 4° C. and pellets were discarded. Total protein concentrations in the lysates were determined by BCA assays (Beyotime Biotechnology). Cell lysates were mixed with Laemmli loading buffer to 1× and heated at 99° C. for 5 min. Proteins were resolved on SDS-PAGE and visualized by chemiluminescence. Images were taken by a ChemiDoc MP Imaging system (Bio-Rad). Protein bands were quantitated using the accompanied software provided by Bio-Rad.
# T1 sequence (P15170 whole entry): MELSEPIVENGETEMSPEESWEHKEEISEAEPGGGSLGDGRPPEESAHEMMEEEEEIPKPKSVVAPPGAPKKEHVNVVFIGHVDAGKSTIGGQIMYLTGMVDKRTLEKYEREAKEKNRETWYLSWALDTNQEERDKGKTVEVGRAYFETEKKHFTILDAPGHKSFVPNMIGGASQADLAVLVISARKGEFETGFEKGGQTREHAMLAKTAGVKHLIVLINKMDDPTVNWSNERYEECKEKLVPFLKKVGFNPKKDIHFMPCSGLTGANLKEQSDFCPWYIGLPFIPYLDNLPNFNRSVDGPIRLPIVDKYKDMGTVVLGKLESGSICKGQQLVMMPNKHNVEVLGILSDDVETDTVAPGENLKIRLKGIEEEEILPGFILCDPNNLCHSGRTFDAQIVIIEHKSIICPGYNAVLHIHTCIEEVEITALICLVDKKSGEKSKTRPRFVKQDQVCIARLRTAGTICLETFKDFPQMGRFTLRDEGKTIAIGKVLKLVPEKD
row,DC50 [nM],Structure (SMILES)
1,< 10,CS(=O)(=O)c1ccc(-c2cccc3nc(Nc4ccc(N5CCN(CC(=O)NCCCCCCCCNc6ccc7c(c6)C(=O)N(C6CCC(=O)NC6=O)C7=O)CC5)cc4)nn23)cc1 (centres unmarked) [JA213]

# Target: T2, JAK1 (Homo sapiens, UniProt P23458)
# T2 construct: immunoblot of JAK1/3 proteins expressed in RS4;11 cells; endogenous in cells; host or cells: RS4;11 cells
# Assay: Immunoblot of JAK1 protein level in RS4;11 cells
# Assay type: cell-based
# Settings: 24 hours, immunoblot, read-out: concentration required to reduce JAK1 by 50% (DC50)
# Protocol: RS4;11 cells were treated with compounds at indicated concentrations for 24 hours. […] The concentrations required to reduce JAK1 by 50% (DC50) were below 5 nM and 35 nM for compound JA-189 and JA213, respectively.
# as §1, §2, §3
# T2 sequence (P23458 whole entry): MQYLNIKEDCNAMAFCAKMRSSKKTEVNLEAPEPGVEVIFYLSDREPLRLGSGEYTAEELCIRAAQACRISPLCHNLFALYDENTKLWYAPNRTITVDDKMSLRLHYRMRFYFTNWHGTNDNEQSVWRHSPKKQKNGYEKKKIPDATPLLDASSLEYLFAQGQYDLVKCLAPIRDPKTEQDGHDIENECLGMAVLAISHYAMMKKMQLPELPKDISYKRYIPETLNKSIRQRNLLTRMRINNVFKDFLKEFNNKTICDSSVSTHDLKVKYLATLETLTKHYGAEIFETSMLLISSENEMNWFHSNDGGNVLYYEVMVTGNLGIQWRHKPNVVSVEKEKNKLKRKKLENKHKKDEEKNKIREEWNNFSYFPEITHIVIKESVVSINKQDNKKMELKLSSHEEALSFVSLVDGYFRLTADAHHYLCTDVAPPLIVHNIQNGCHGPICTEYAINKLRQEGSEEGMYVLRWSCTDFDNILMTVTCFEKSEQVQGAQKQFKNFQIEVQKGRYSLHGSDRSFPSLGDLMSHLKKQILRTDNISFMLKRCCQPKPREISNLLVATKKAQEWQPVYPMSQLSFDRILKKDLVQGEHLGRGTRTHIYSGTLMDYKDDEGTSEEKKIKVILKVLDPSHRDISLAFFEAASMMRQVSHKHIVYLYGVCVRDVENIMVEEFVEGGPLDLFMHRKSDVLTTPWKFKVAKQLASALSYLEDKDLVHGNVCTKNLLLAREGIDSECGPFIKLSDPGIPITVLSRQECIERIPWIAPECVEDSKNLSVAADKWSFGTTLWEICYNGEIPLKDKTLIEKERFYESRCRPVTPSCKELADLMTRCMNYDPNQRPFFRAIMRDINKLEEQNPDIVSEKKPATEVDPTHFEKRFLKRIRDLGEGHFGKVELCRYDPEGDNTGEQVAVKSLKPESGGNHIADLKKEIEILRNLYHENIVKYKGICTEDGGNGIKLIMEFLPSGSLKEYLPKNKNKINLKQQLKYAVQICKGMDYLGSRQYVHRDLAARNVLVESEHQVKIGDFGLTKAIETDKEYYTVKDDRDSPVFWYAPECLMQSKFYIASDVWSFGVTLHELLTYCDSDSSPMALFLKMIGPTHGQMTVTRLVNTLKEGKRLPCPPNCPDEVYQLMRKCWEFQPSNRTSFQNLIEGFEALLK
row,DC50 [nM],Structure (SMILES)
1,< 35,CS(=O)(=O)c1ccc(-c2cccc3nc(Nc4ccc(N5CCN(CC(=O)NCCCCCCCCNc6ccc7c(c6)C(=O)N(C6CCC(=O)NC6=O)C7=O)CC5)cc4)nn23)cc1 (centres unmarked) [JA213]

# Tested on: RS4;11 cells
# Assay: Cell viability assay (CellTiter-Glo) in RS4;11 cells
# Assay type: cell-based
# Settings: Homo sapiens, 72 h; RS4;11 cells; cell viability, 3 days, CellTiter-Glo; read-out: IC50
# In short: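 Three-day compound treatment of RS4;11 ALL cells (5000/well, 3-fold dilution series of 8 or 12 points), with IC50 from a nonlinear least-squares fit to CellTiter-Glo viability data.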
row,IC50 [nM],Structure (SMILES)
1,> 10000,"Cc1cnc(Nc2ccc(N3CCN(CC(=O)NCCCCC(=O)N[C@H](C(=O)N4C[C@H](O)C[C@H]4C(=O)NCc4ccc(-c5scnc5C)cc4)C(C)(C)C)CC3)cc2)nc1Nc1cccc(S(=O)(=O)NC(C)(C)C)c1 [JA-100, (2S,4R)-1-((S)-2-(5-(2-(4-(4-((4-((3-(N-(tert-Butyl)sulfamoyl)phenyl)amino)-5-methylpyrimidin-2-yl)amino)phenyl)piperazin-1-yl)acetamido)pentanamido)-3,3-dimethylbutanoyl)-4-hydroxy-N-(4-(4-methylthiazol-5-yl)benzyl)pyrrolidine-2-carboxamide]"
2,940,Cc1cnc(Nc2ccc(N3CCN(C(=O)CCOCCOCCOCCOCCOCCNc4cccc5c4C(=O)N(C4CCC(=O)NC4=O)C5=O)CC3)cc2)nc1Nc1cccc(S(=O)(=O)NC(C)(C)C)c1 (centres unmarked) [JA-021]
3,24.6,"CS(=O)(=O)c1ccc(-c2cccc3nc(Nc4ccc(N5CCN(CCCCCC#Cc6ccc7c(c6)C(=O)N(C6CCC(=O)NC6=O)C7=O)CC5)cc4)nn23)cc1 (centres unmarked) [JA-252, 2-(2,6-dioxopiperidin-3-yl)-5-(7-(4-(4-((5-(4-(methylsulfonyl)phenyl)-[1,2,4]triazolo[1,5-a]pyridin-2-yl)amino)phenyl)piperazin-1-yl)hept-1-yn-1-yl)isoindoline-1,3-dione]"
4,> 10000,"O=C1CCC(N2C(=O)c3cccc(NCCOCCOCCC(=O)N4CCC(n5cc(-c6cnc7cccc(-c8cc(F)c(CN9CCOCC9)c(F)c8)c7n6)cn5)CC4)c3C2=O)C(=O)N1 (centres unmarked) [JA-039, 4-[2-[2-[3-[4-[4-[8-[3,5-Difluoro-4-(morpholinomethyl)phenyl]quinoxalin-2-yl]pyrazol-1-yl]-1-piperidyl]-3-oxo-propoxy]ethoxy]ethylamino]-2-(2,6-dioxo-3-piperidyl)isoindoline-1,3-dione]"
5,3170,"O=C1CCC(N2C(=O)c3cccc(NCCCCCC(=O)N4CCC(n5cc(-c6cnc7cccc(-c8cc(F)c(CN9CCOCC9)c(F)c8)c7n6)cn5)CC4)c3C2=O)C(=O)N1 (centres unmarked) [JA-001, 4-[[6-[4-[4-[8-[3,5-Difluoro-4-(morpholinomethyl)phenyl]quinoxalin-2-yl]pyrazol-1-yl]-1-piperidyl]-6-oxo-hexyl]amino]-2-(2,6-dioxo-3-piperidyl)isoindoline-1,3-dione]"
6,> 10000,"Cc1ncsc1-c1ccc(CNC(=O)[C@@H]2C[C@@H](O)CN2C(=O)[C@@H](NC(=O)CCOCCOCCOCCOCCOCCNC(=O)CN2CCC(n3cc(-c4cnc5cccc(-c6cc(F)c(CN7CCOCC7)c(F)c6)c5n4)cn3)CC2)C(C)(C)C)cc1 [JA-159, (2S,4R)-1-((S)-23-(tert-Butyl)-1-(4-(4-(8-(3,5-difluoro-4-(morpholinomethyl)phenyl)quinoxalin-2-yl)-1H-pyrazol-1-yl)piperidin-1-yl)-2,21-dioxo-6,9,12,15,18-pentaoxa-3,22-diazatetracosan-24-oyl)-4-hydroxy-N-(4-(4-methylthiazol-5-yl)benzyl)pyrrolidine-2-carboxamide]"
7,259,"CS(=O)(=O)c1ccc(-c2cccc3nc(Nc4ccc(N5CCN(C(=O)CCCCCOc6ccc7c(c6)C(=O)N(C6CCC(=O)NC6=O)C7=O)CC5)cc4)nn23)cc1 (centres unmarked) [JA-255, 2-(2,6-Dioxopiperidin-3-yl)-5-((6-(4-(4-((5-(4-(methylsulfonyl)phenyl)-[1,2,4]triazolo[1,5-a]pyridin-2-yl)amino)phenyl)piperazin-1-yl)-6-oxohexyl)oxy)isoindoline-1,3-dione]"
8,> 10000,"Cc1ncsc1-c1ccc(CNC(=O)[C@@H]2C[C@@H](O)CN2C(=O)[C@@H](NC(=O)CCOCCOCCOCCNC(=O)CN2CCN(c3ccc(Nc4nc5cccc(-c6ccc(S(C)(=O)=O)cc6)n5n4)cc3)CC2)C(C)(C)C)cc1 [JA-137, (2S,4R)-1-((S)-17-(tert-Butyl)-1-(4-(4-((5-(4-(methylsulfonyl)phenyl)-[1,2,4]triazolo[1,5-a]pyridin-2-yl)amino)phenyl)piperazin-1-yl)-2,15-dioxo-6,9,12-trioxa-3,16-diazaoctadecan-18-oyl)-4-hydroxy-N-(4-(4-methylthiazol-5-yl)benzyl)pyrrolidine-2-carboxamide]"
9,> 10000,"Cc1cnc(Nc2ccc(N3CCN(CC(=O)NCCCCCCCCCCC(=O)N[C@H](C(=O)N4C[C@H](O)C[C@H]4C(=O)NCc4ccc(-c5scnc5C)cc4)C(C)(C)C)CC3)cc2)nc1Nc1cccc(S(=O)(=O)NC(C)(C)C)c1 [JA-106, (2S,4R)-1-((S)-2-(11-(2-(4-(4-((4-((3-(N-(tert-Butyl)sulfamoyl)phenyl)amino)-5-methylpyrimidin-2-yl)amino)phenyl)piperazin-1-yl)acetamido)undecanamido)-3,3-dimethylbutanoyl)-4-hydroxy-N-(4-(4-methylthiazol-5-yl)benzyl)pyrrolidine-2-carboxamide]"
